Source: paper PMC6838142, “Nano-Antagonist Alleviates Inflammation and Allows for MRI of Atherosclerosis” (Nanotheranostics, 2019)
“Also recorded” adds a separate entry of the source.

How the values were obtained:
[1] = test system: bone marrow derived monocytes, CCL2-induced migration; experiment: CCL2-induced chemotaxis assay; assay type: cell-based, mouse; parameters: cell velocity / distance traveled / chemotactic index: dose or concentration left out as unconfirmed
Method: Chemotaxis assays were performed using IBIDI µ-Slides as per the manufacturer's instructions and the recently published guide detailing the protocol. […] Cells were allowed to attach for 3 h at 37 °C, washed with 0.2 mL warm cell culture medium using a pipette tip inserted into µ-channel port, following which 100 nM recombinant mouse CCL2 protein was added as a chemoattractant (or omitted in control slides) to the one of side reservoirs. Cell movement was recorded for a duration of 12 h via phase video-microscopy in a stage-top humidified incubator at 37 °C and 5% CO2 atmosphere. Analysis was performed using the ImageJ IBIDI tracking tool, available free of charge at https://ibidi.com.

recombinant CCR2 protein = experiment: CCR2 receptor binding of nanoparticles to immobilized recombinant CCR2; parameters: species or system human; details: recombinant CCR2 2 µg/mL coated; nanoparticles 4 h room temperature; fluorescence 550/620 nm
Method: A sandwich-type plate-based immunoassay was developed in-house to study CCR2 receptor binding. Black opaque plates (for fluorescence studies) or clear high protein binding plates (for absorbance studies) were coated with recombinant CCR2 protein at 2 µg/mL in PBS overnight at 4 °C. Plates were washed 5 times with PBS and treated as follows: for nanoparticles binding, varying concentrations of fluorescent nanoparticles or vehicle control (see above) in PBS were added to the opaque plates and incubated for 4 h at room temperature. For peptide competition/binding studies, recombinant human CCL2 was added in clear plates at varying concentrations in PBS simultaneously with a large excess of peptides (1 mM final concentration, dissolved in dimethylformamide) and incubated for 1 h at room temperature. All plates were washed 5 times with PBS and fluorescence in opaque plates was read at 550 nm excitation and 620 nm emissions. […] Clear plates were washed and incubated with 0.1 µg/mL streptavidin-HRP. Finally, clear plates were washed and incubated with SigmaFast OPD reagent in the presence of hydrogen peroxide-urea, as per the manufacturer's instructions. After 30 min incubation period at 37 °C, the plates were read at 450 nm on a multiwell plate reader as described above. Fluorescence emission values and OD at 450 nm were plotted against concentration using a 4-parametric fit.

BMDMs = experiment: CCL2-induced actin polymerization in BMDMs; assay type: cell-based; details: 6 h pre-treatment, 500 nM recombinant mouse CCL2; 5 µM; phalloidin staining
Method: Next, cells were washed with PBS and recombinant mouse CCL2 was added to a final concentration of 500 nM. Then, cells were incubated for varying times (indicated in Figure 2G), after which they were immediately placed on ice and washed 3 times with cold PBS. Actin polymerization was then visualized following staining with phalloidin Alexa Fluor 633, according to the manufacturer's instructions.

[2] = test system: bone marrow derived macrophages (BMDMs); experiment: Immunoblot of IL-1β and HO-1 in LPS-stimulated BMDMs; assay type: cell-based, mouse
Method: Immunoblotting was performed as previously described with the following modifications. Briefly, cell lysates were obtained in SDS lysis buffer consisting of 2% SDS, 50 mM Tris-HCl (pH 6.8), 100 mM DTT, 5% Ficoll 400, 0.0001% bromophenol blue and a cocktail of protease inhibitors. Lysates were sonicated on ice before heating at 97 °C for 7 min to completely denature the protein. Protein concentration was determined using IR spectroscopy (which is insensitive to high SDS and DTT concentrations) with a Millipore DirectDetect spectrometer. Lysates were equally loaded at 10-15 µg per lane on BioRad TGX Criterion gels (4-15%) and resolved at 300 V in Tris-Glycine running buffer. Proteins were transferred on nitrocellulose membranes using the BioRad TransBlot turbo according to the manufacturer's instructions. Membranes were blocked in fish serum (Aqua Block) or 5% nonfat dry milk in TBS-T (0.05% Tween 20) and probed overnight at 4 °C with primary antibodies as indicated in Supplementary Table S1. The membranes were washed in TBS-T and incubated with secondary antibodies for 1 h at room temperature. After washing, semi-quantitative visualization of the proteins of interest was enabled using an enhanced chemiluminescence reagent as previously described and the Azure C400 western blot imaging system.
N-acetylcysteine (NAC) served as an antioxidant control. β-Actin was used as a loading control. B) Gene expression analysis in RAW cells treated with 1 µM of vehicle, CCTV and VTCC (peptide nanoparticle control) for 24 h. mRNA expression of mannose receptor (Mrc1), nitric oxide synthase 2 (Nos2), tumor necrosis factor (Tnf), interleukin-1beta (Il1b), and interleukin-6 (Il6) were analyzed. C) Cytokines in cell culture supernatants were analyzed as indicated. […] Metrics of chemotactic behaviour i.e. velocity, distance travelled, and chemotactic index were quantified as presented in bar graphs. […] P values are calculated by t-test and error bars are standard errors of three independent experiments.

[3] = test system: CCR2hiLy6Chi inflammatory cells in blood of ApoE-/- mice; experiment: Flow cytometry of blood immune cells after injection; assay type: in vivo, mouse
Method: Twenty-four hours after nanoparticle injection (see above), mice were euthanized and whole blood was collected via cardiac puncture. The cells were separated from plasma via centrifugation at 2500 rpm for 25 min at 4 °C and white blood cells were isolated after lysis of red blood cells with ACK lysis buffer. The cells were resuspended in 1% FBS in PBS (FACS buffer) on ice and stained with fluorophore-conjugated antibodies detecting CD11b, CD11c, CCR2, and Ly6C (Supplementary Table S1) for 30 min at room temperature. Cells were washed with FACS buffer three times and one time with PBS, and then fixed in 2% paraformaldehyde in PBS, pH 7.4. Samples were run on a Becton Dickinson LSR II flow cytometer and cell surface expression analysis of indicated markers was performed using FlowJo software.

CCTV
cell velocity ([1]; CCL2-induced chemotaxis): statistically significant inhibition
chemotactic index ([1]; CCL2-induced chemotaxis): statistically significant inhibition
distance traveled ([1]; CCL2-induced chemotaxis): statistically significant inhibition
CCL2-induced monocyte migration ([1]; pre-treated BMDMs, 100 nM recombinant mouse CCL2, 12 h, nanoparticles): potently inhibited CCL2-induced monocyte migration in an antagonistic manner
binding to immobilized CCR2 (recombinant CCR2 protein): bound to immobilized recombinant receptor protein in a dose dependent manner; also recorded: significant, dose-dependent binding
actin polymerization (BMDMs): significantly inhibited actin polymerization
HO-1 levels at high concentration ([2]; 50 µM): the effect was reversed
HO-1 levels (immunoblot) ([2]; LPS 100 ng/mL, 16 h): reduced
IL-1β production (immunoblot) ([2]; LPS 100 ng/mL, 16 h): dose-dependent reduction of IL-1β
accumulation in CCR2-positive blood macrophage subpopulations ([3]; 100 mg/kg, 24 h, three ApoE-/- mice/group): selectively accumulated in macrophage subpopulations positive for CCR2
nanoparticle-positive CCR2hiLy6Chi cells ([3]; 100 mg/kg, 24 h, three ApoE-/- mice/group, vs VTCC): an increased number of these cells were CCTV positive compared to VTCC
number of macrophages that engulfed nanoparticles ([3]; Supplementary Figure S9, CCTV vs VTCC): not due to a different number of macrophages that engulfed nanoparticles
